Results published in patent US20030039673A1, “DISINFECTION BY PARTICLE-BOUND AND INS[…]” (priority 1997, published 2003).

Columns and labels:
[1] = Detergent binding to resin, foaming of supernatant; type: physicochemical; parameters: key: foaming presence (+); absence (−); details: 10 mM detergent solution incubated with resin beads
[2] = Detergent binding to resin, foaming of supernatant; type: physicochemical; parameters: key: foaming presence (+); absence (−); details: 10 mM detergent solution incubated with resin beads; remark: listed apart in the source
[3] = Detergent binding to resin, foaming of supernatant; type: physicochemical; parameters: key: foaming presence (+); absence (−); details: 10 mM detergent solution incubated with resin beads; remark: listed apart in the source
viruses = details: even in the presence of plasma proteins; basis of copending application Ser. No. 08/785,984; cited from earlier work
EMC virus = assay: Viral end point assay of EMC-spiked plasma; type: cell-based

Row | Compound | foaming of supernatant as indicator of detergent presence, Calbiosorb [1] | foaming of supernatant as indicator of detergent presence, Polystyrene [2] | foaming of supernatant as indicator of detergent presence, Purolite [3] | level effective at inactivating some viruses (viruses) | Titer (EMC virus; 100 mM triclosan in 2% aqueous Triton X-100, 5 mL added to 50 mL EMC-spiked plasma, 60 min room temperature) | virucidal effectiveness compared with Triton plus triclosan (EMC virus; 0.2% Triton alone) | hemolysis (red blood cells (RBC))
1 | C[C@H](CCC(=O)NCCC[N+](C)(C)CCCS(=O)(=O)[O-])[C@H]1CC[C@H]2[C@@H]3[C@H](O)C[C@@H]4C[C@H](O)CC[C@]4(C)[C@H]3C[C@H](O)[C@]12C [CHAPS, 3-[(3-Chloramidopropyl)-dimethylammonio]-1-propanesulfanate] | − | + |  |  |  |  | 
2 | C[C@H](CCC(=O)NCCC[N+](C)(C)CC(O)CS(=O)(=O)[O-])[C@H]1CC[C@H]2[C@@H]3[C@H](O)C[C@@H]4C[C@H](O)CC[C@]4(C)[C@H]3C[C@H](O)[C@]12C (stereo partly drawn) [CHAPSO, 3-[(3-Chloramidopropyl)-dimethylammonio]-2-hydroxyl 1-propanesulfanate] | − | + |  |  |  |  | 
3 | CCCCCCCC(=O)O [Caprylate, caprylic acid] | − | + | − |  |  |  | 
4 | C[C@H](CCC(=O)O)[C@H]1CC[C@H]2[C@@H]3[C@H](O)C[C@@H]4C[C@H](O)CC[C@]4(C)[C@H]3C[C@H](O)[C@]12C [Cholate, cholic acid] | − | + | − |  |  |  | 
5 | CCCCCCCCOC(=O)CC(C(=O)OCCCCCCCC)S(=O)(=O)O (stereo not drawn) [DSS, dioctyl sulfosuccinate] | − | + | − |  |  |  | 
6 | C[C@H](CCC(=O)O)[C@H]1CC[C@H]2[C@@H]3CC[C@@H]4C[C@H](O)CC[C@]4(C)[C@H]3C[C@H](O)[C@]12C [Deoxycholate, deoxycholic acid] | − | + | − |  |  |  | 
7 | CCCCCCCCO[C@@H]1O[C@H](CO)[C@@H](O)[C@H](O)[C@H]1O [OG, n-octyl-B-D-glucopyranoside] | − | + | + | about 0.03% |  |  | 
8 | CCCCCCCCCCCCOS(=O)(=O)[O-].[Na+] [SDS, sodium dodecylsulfate] | − | + | − |  |  |  | 
9 | CCCCCCCCCCCCCC[N+](C)(C)C.[Br-] [TTAB, tetradecyltrimethylammonium bromide] | − | + |  |  |  |  | 
10 | Oc1cc(Cl)ccc1Oc1ccc(Cl)cc1Cl [Triclosan, triclosan] |  |  |  |  | 0 |  | 
11 | Triton X-100 | − | + | + |  |  | not nearly effective as Triton plus triclosan | immediate hemolysis
12 | benzalkonium chloride [BC] | − | + |  |  |  |  | 
